This note sets out measurements from patent EP0335164A2, “Ester derivatives of neopentanol, process for their preparation and their use as medicines” (Merckle GmbH, priority 1988, dated 1989).

One experiment deals with Pfotenoedem. As to the kind of experiment: Rat paw oedema test after oral administration (anti-inflammatory effect). Format: in vivo, Ratte. An excerpt: (§1) Die entzündungshemmende Wirkung wurde mit ausgewählten Verbindungen jedes Estertyps im Vergleich zum jeweiligen Standard im konventionellen Rattenpfotenoedemtest nach oraler Applikation untersucht. Die Ergebnisse sind in Tab. 3 zusammengefaßt. Weiterhin wurde mit einigen Verbindungen die entzündungshemmende Aktivität nach dermaler Applikation am Kaolin-induzierten Pfotenoedem der Ratte untersucht. Für den Test wurden die Substanzen in einer Mischung aus Ethanol/Aceton/Dimethylacetamid gelöst und im konstanten Volumen 30 Min. vor und 150 Min. nach Injektion von Kaolin (0,1 ml 10%-ige Suspension in Wasser) appliziert. Das Pfotenvolumen wurde 2, 4 und 6 Stunden nach Kaolininjektion gemessen. Die Ergebnisse sind in Tabelle 4 zusammengefaßt.

The subject of experiment [1] is Kaolin-induziertes Pfotenoedem. Kind of experiment: Kaolin-induced rat paw oedema after dermal administration. Format: in vivo, Ratte. The following applies: 10 mg/kg standard acid, esters 12.3-13.2 mg/kg equivalent to 10 mg/kg acid, applied 30 min before and 150 min after kaolin; for % Hemmung 2h: 2 h after kaolin injection; for % Hemmung 4h: 4 h after kaolin injection; for % Hemmung 6h: 6 h after kaolin injection.
From the text: as §1

The structures appear in SMILES notation. Marks after values point to notes of the source that are not given here.

`CC(C)(CO)COC(=O)c1ccccc1Nc1cccc(C(F)(F)F)c1` [Beispiel 1, Flufenaminsäureneopentylglykolmonoester] yielded a Hemmeffekt % in the experiment with Pfotenoedem (25 mg/kg) of 38%. Also, the Hemmeffekt % in the experiment with Pfotenoedem (50 mg/kg) came to 55%. Besides, in experiment [1], the “% Hemmung 2h” value worked out at 2.2%, the “% Hemmung 4h” value is 23.7*** % and the “% Hemmung 6h” value was 36.8*** %.
For the compound `CC(C)(C)COC(=O)Cc1cn(-c2ccccc2)nc1-c1ccc(Cl)cc1` [Beispiel 3, Lonazolacneopentylester], in experiment [1], the “% Hemmung 2h” value is 18.2* %, the “% Hemmung 4h” value is recorded as 31.6*** % and the “% Hemmung 6h” value is reported as 34.3*** %.
Compound `CC(C(=O)OCC(=O)OCC(C)(C)C)c1ccc(-c2ccccc2)c(F)c1` (centres unmarked) [Beispiel 4] had a Hemmeffekt % with Pfotenoedem (25 mg/kg) of 33%.
As for `CC(C(=O)OCC(C)(C)CO)c1cccc(C(=O)c2ccccc2)c1` (centres unmarked) [Beispiel 5], the Hemmeffekt % in the experiment on Pfotenoedem (10 mg/kg) came out at 33%.
Turning to `CC(C(=O)OCC(C)(C)CO)c1ccc(C(=O)c2cccs2)cc1` (centres unmarked) [Beispiel 9], the Hemmeffekt % came to 34% in the experiment with Pfotenoedem (10 mg/kg) and 43% in the experiment with Pfotenoedem (25 mg/kg).
Regarding `CC(C)Cc1ccc(C(C)C(=O)OCC(C)(C)CO)cc1` (centres unmarked) [Beispiel 11], the Hemmeffekt % in the experiment with Pfotenoedem (50 mg/kg) is on record as 47%.
In the experiment with Pfotenoedem (1 mg/kg), `CC(C(=O)OCC(C)(C)C)c1ccc(-c2ccccc2)c(F)c1` (centres unmarked) [Beispiel 14] returned a Hemmeffekt % of 35%.
As for `CC(C(=O)OCC(C)(C)C)c1ccc(C(=O)c2cccs2)cc1` (centres unmarked) [Beispiel 15], the Hemmeffekt % in the experiment on Pfotenoedem (5 mg/kg) was found to be 37%.
Compound `CC(C)(C)COC(=O)Cc1ccccc1Nc1c(Cl)cccc1Cl` [Beispiel 16] came in with a Hemmeffekt % in the experiment on Pfotenoedem (50 mg/kg) of 36%. Further, in experiment [1], the “% Hemmung 2h” value is listed as 19.2* %, the “% Hemmung 4h” value is listed as 40.1*** % and the “% Hemmung 6h” value was 43.2*** %.
`CC(C)Cc1ccc(C(C)C(=O)OCC(C)(C)C)cc1` (centres unmarked) [Beispiel 17]: the Hemmeffekt % in the experiment on Pfotenoedem (25 mg/kg) amounted to 43%.
Compound `CC(C)(C)COC(=O)COC(=O)Cc1cn(-c2ccccc2)nc1-c1ccc(Cl)cc1` [Beispiel 22] came in with a Hemmeffekt % in the experiment on Pfotenoedem (15 mg/kg) of 46%.
In the experiment on Pfotenoedem (50 mg/kg), `CC(C)(C)COC(=O)COC(=O)Cc1ccccc1Nc1c(Cl)cccc1Cl` [Beispiel 24] registered a Hemmeffekt % of 33%.
With `O=C(O)Cc1ccccc1Nc1c(Cl)cccc1Cl` [Diclofenac, 2-[(2,6-Dichlorphenyl)amino]-phenylessigsäure, reference compound], the Hemmeffekt % in the experiment with Pfotenoedem (100 mg/kg) was 38%. In addition, in experiment [1], the “% Hemmung 2h” value is reported as 0%, the “% Hemmung 4h” value is 36.2*** % and the “% Hemmung 6h” value is reported as 37.6*** %.
In the case of `O=C(O)c1ccccc1Nc1cccc(C(F)(F)F)c1` [Flufenaminsäure, N-(α,α,α-Trifluor-m-tolyl)anthranilsäure, reference compound], the Hemmeffekt % with Pfotenoedem (50 mg/kg) amounted to 33%. In experiment [1], the “% Hemmung 2h” value is 0%, the “% Hemmung 4h” value is 19.4** % and the “% Hemmung 6h” value is listed as 23.2** %.
As for `CC(C(=O)O)c1ccc(-c2ccccc2)c(F)c1` (centres unmarked) [Flurbiprofen, 2-(2-Fluor-4-biphenylyl)-propionsäure, reference compound], the Hemmeffekt % with Pfotenoedem (50 mg/kg) came out at 40%.
With `CC(C)Cc1ccc(C(C)C(=O)O)cc1` (centres unmarked) [Ibuprofen, 2-(4-Isobutylphenyl)-propionsäure, reference compound], the Hemmeffekt % in the experiment on Pfotenoedem (50 mg/kg) was determined as 35%.
As for `CC(C(=O)O)c1cccc(C(=O)c2ccccc2)c1` (centres unmarked) [Ketoprofen, 2-(3-Benzoylphenyl)-propionsäure, reference compound], in the experiment with Pfotenoedem (38 mg/kg), the Hemmeffekt % is 44%.
The compound `O=C(O)Cc1cn(-c2ccccc2)nc1-c1ccc(Cl)cc1` [Lonazolac, 3-(4-Chlorphenyl)-1-phenyl-1H-pyrazol-4-essigsäure, reference compound] showed a Hemmeffekt % in the experiment on Pfotenoedem (25 mg/kg) of 38%. Besides, in experiment [1], the “% Hemmung 2h” value was found to be 0%, the “% Hemmung 4h” value is given as 3.1% and the “% Hemmung 6h” value is listed as 30.0*** %.
Regarding `CC(C(=O)O)c1ccc(C(=O)c2cccs2)cc1` (centres unmarked) [Suprofen, 2-[4-(2-Thenoyl)phenyl]-propionsäure, reference compound], the Hemmeffekt % in the experiment on Pfotenoedem (50 mg/kg) is on record as 20%.
